In patent US11634443B2, “Treprostinil prodrugs” (United Therapeutics Corporation, priority 2019, dated 2023):
Where two headings read alike, the source gives them in different places.

Columns and labels:
[1] = Plasma stability and formation of treprostinil, human plasma; type: in vitro ADME; details: for Formation of Treprostinil, Concentration: prodrug dosed at 1 μM
Method: (§1) Studies were carried out in mixed-gender human plasma male Sprague-Dawley rat plasma, and male Beagle dog plasma. All plasma was obtained from Bioreclamation and collected on K2EDTA. Plasma was adjusted to pH 7.4 prior to initiating the experiments. DMSO stocks were first prepared for the test articles. […] The vials were kept in a benchtop Thermomixer® for the duration of the experiment. […] Samples were stored at 4° C. until the end of the experiment. After the final time point was sampled, the plate was mixed and then centrifuged at 3000 rpm for 10 minutes.

[2] = Plasma stability and formation of treprostinil, rat plasma; type: in vitro ADME; details: for Formation of Treprostinil, Concentration: prodrug dosed at 1 μM
Method: as §1

[3] = Plasma stability and formation of treprostinil, dog plasma; type: in vitro ADME; details: for Formation of Treprostinil, Concentration: prodrug dosed at 1 μM
Method: as §1

[4] = Stability and formation of treprostinil in human cryopreserved hepatocytes
Method: (§2) Mixed-gender human cryopreserved hepatocytes, male Sprague-Dawley rat cryopreserved hepatocytes, and male Beagle dog cryopreserved hepatocytes were purchased from XenoTech. The hepatocytes were thawed and prepared according to the vendor's instructions, pooled into Krebs Henseleit buffer (KHB, pH 7.4), and kept on ice prior to the experiments. […] The final DMSO content in the incubation mixture was ≤0.1%. […] Aliquots of the test article were withdrawn (n=1) at 0, 15, 30, 60, and 120 minutes. […] Aliquots of 7-HC were withdrawn (n=1) at 0 and 15 minutes. The reaction was immediately terminated by adding two volumes of ice-cold acetonitrile (ACN) to the test article samples and three volumes of ACN containing internal standard to the positive control samples.

[5] = Stability and formation of treprostinil in rat cryopreserved hepatocytes
Method: as §2

[6] = Stability and formation of treprostinil in dog cryopreserved hepatocytes
Method: as §2

[7] = Stability and formation of treprostinil in simulated intestinal fluid; type: in vitro ADME; details: for Formation of Treprostinil, Concentration: SIF, prodrug dosed at 1 μM
Method: Studies were carried out in simulated intestinal fluid (SIF). SIF was prepared by dissolving 6.8 g of KH2PO4 in 250 mL of water, mixing, and then adding 77 mL of 0.2 N NaOH and 750 mL of water. Pancreatin (10 g) was added, mixed, and the pH was adjusted to pH 6.8 with 10 N NaOH. DMSO stocks were first prepared for the test articles. Aliquots of the DMSO solutions were dosed into 0.4 mL of matrix, which had been pre-warmed to 37° C., at a final test article concentration of 1 μM. The vials were kept in a benchtop Thermomixer® for the duration of the experiment. A separate tube was dosed for each time point in each matrix. At the appropriate times (0, 15, 30, 60, and 120 minutes), 0.8 mL of acetonitrile (ACN) containing 1% formic acid and internal standard was added directly to a single tube. Samples were mixed and then immediately stored at 4° C. until the end of the experiment. After the final time point was sampled, the plate was mixed and then centrifuged at 3000 rpm for 10 minutes. Aliquots of the supernatant were removed, diluted 1:1 into distilled water containing internal standard, and analyzed by LC-MS/MS against calibration standards prepared in a matched matrix. All samples were analyzed for the dosed prodrugs as well as the drug, treprostinil. The test article concentration was compared to the concentration at time 0 to determine the percent of test article remaining at each time point. Half-lives were calculated using GraphPad software, fitting to a single-phase exponential decay equation.

[8] = target: T1, prostaglandin I2 (PGI2) receptor (IP) (Homo sapiens, UniProt P43119); test: IP receptor cAMP assay (agonist mode); type: cell-based; details: for Activity, IP Relative to Tre: relative to treprostinil EC50 values, image character = too high to realistically calculate
T1 construct: expressed in transfected cells; host or cells: CHO-K1
T1 sequence (P43119 whole entry): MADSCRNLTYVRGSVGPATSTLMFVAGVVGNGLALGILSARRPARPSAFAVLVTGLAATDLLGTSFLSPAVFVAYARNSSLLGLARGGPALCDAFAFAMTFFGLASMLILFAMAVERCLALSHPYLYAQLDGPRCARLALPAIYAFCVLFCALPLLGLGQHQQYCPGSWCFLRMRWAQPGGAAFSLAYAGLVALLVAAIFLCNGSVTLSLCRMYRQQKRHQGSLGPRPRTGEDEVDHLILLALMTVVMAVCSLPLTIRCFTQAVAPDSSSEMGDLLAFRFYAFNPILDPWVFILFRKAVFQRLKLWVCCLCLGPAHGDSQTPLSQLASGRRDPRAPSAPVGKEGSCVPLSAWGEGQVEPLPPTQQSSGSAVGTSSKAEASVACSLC

[9] = target: T2, prostaglandin E2 (PGE2) receptor 2 (EP2) (Homo sapiens, UniProt P43116); test: EP2 receptor cAMP assay (agonist mode); type: cell-based; details: cAMP, cells overexpressing human EP2
T2 construct: expressed in transfected cells; host or cells: HEK293T
T2 sequence (P43116 whole entry): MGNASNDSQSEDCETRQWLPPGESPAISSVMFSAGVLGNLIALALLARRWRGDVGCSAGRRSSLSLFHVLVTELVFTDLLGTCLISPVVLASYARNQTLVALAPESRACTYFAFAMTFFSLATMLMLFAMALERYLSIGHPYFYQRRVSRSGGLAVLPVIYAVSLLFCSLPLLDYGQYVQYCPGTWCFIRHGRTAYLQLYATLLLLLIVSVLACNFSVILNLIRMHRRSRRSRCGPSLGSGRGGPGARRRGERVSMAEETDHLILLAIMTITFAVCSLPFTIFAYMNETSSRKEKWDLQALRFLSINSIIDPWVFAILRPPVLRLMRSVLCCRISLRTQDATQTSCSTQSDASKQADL
Method: (§3) Assay Buffer: • EP1 Calcium and DP1 cAMP Assays: HBSS plus 20 mM HEPES • EP2 and IP1 cAMP Assays: 1 mM IBMX in HBSS plus 20 mM HEPES
(§4) Cells were thawed from frozen cells and resuspended in assay buffer at desired concentrations. cAMP or Calcium assays were performed according to the manufacturer's protocol using Multiscreen™ TR-FRET cAMP 1.0 No Wash Assay Kit or Multiscreen™ Calcium 1.0 No Wash Kit.
(§5) Gas Cyclic AMP (cAMP) Assay: In agonist mode testing, cells were seeded in a 384-well plate at an appropriate density and then were treated with compounds and incubated at 37° C. for 20 minutes. The reaction was terminated by sequentially adding sequentially adding trFluor™ Eu-labeled cAMP and trFluor™ 650-labeled anti-cAMP antibody in lysis buffer. […] All testing wells contained 0.1% DMSO in the final concentrations.
(§6) Data in graphs are represented in Mean±SD. Dose-dependent responses were fitted with sigmoidal dose-response curves allowing variable slopes using GraphPad Prism version 6 (Graphpad Prism).
(§7) These studies used cell lines overexpressing either human IP, EP2 or DP1, or EP1 receptors, and following incubation with varying concentrations of compounds, cAMP levels were measured using Fluorescence Resonance Energy Transfer (FRET).

[10] = target: T3, prostaglandin D2 (PGD2) receptor 1 (DP1) (Homo sapiens, UniProt Q13258); test: DP1 receptor cAMP assay (agonist mode); type: cell-based; details: for Activity at the DP1 receptor compared to treprostinil: cAMP, cells overexpressing human DP1; for Activity, DP1 Relative to Tre: relative to treprostinil EC50 values, * partial agonists or ambiguous dose-response curves
T3 construct: expressed in transfected cells; host or cells: HEK293T
T3 sequence (Q13258 1-359): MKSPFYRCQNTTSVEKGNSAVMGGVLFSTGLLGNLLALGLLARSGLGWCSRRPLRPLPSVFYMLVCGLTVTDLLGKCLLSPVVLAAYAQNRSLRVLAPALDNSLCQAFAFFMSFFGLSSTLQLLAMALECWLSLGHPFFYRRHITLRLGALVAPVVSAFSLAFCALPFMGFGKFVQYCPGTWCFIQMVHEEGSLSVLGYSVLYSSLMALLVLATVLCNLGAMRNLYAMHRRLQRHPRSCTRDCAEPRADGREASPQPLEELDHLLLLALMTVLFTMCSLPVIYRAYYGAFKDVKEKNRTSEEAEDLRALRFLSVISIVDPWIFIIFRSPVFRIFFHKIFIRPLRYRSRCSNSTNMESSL
Method: as §3, §4, §5, §6, §7

[11] = Hydrolysis of treprostinil prodrugs to treprostinil at pH 6, 7 and 8 and 40 C; type: physicochemical
Description: Tables 26, 27 and 28 present data for hydrolysis of selected treprostinil prodrugs at pH 6, 7 and 8, respectively, and 40 C.

[12] = microsomes
Method: (§8) Mixed-gender human liver microsomes, male Sprague-Dawley rat liver microsomes, and male Beagle dog liver microsomes were purchased from XenoTech. The reaction mixture, minus NADPH, was prepared as described below. […] An aliquot of the reaction mixture (without cofactor) was equilibrated in a shaking water bath at 37° C. for 5 minutes. The reaction was initiated by the addition of cofactor, and the mixture was incubated in a shaking water bath at 37° C. Aliquots (200 μL) were withdrawn at 0, 10, 20, 30, and 60 minutes. Test article samples were immediately combined with 400 μL of ice-cold acetonitrile (ACN) to terminate the reaction. […] The samples were then mixed and centrifuged to precipitate proteins. Aliquots of the supernatant were removed, diluted 1:1 into distilled water containing internal standard, and analyzed by LC-MS/MS against calibration standards prepared in a matched matrix. All samples were analyzed for the dosed prodrugs as well as the drug, treprostinil. The test article concentration was compared to the concentration at time 0 to determine the percent of test article remaining at each time point. Half-lives and clearance were calculated using GraphPad software, fitting to a single-phase exponential decay equation.
Liver Microsomes 0.5 mg/mL
Potassium Phosphate, pH 7.4 100 mM

[13] = microsomes; remark: listed apart in the source
Method: as §8
Liver Microsomes 0.5 mg/mL
Potassium Phosphate, pH 7.4 100 mM

[14] = Stability and formation of treprostinil in human subcutaneous skin homogenate; details: pooled human skin homogenate, 1 μM
Method: For each of the test articles, 495 μL of skin homogenate was added to triplicate centrifuge tubes. To each tube, 5 μL of a 100 μM solution of test article was added, for a final test article dosing concentration of 1 μM. The tubes were placed onto a Thermomixer and maintained at 37° C. with gentle shaking for the duration of the experiment. At each time point (0, 30, 60, and 120 minutes), a 100 μL aliquot was removed from each tube and combined with 200 μL of acetonitrile to stop the stability reaction. The tubes were mixed and centrifuged at 3000 rpm for 10 minutes. Aliquots of supernatant were removed and diluted 1:1 with distilled water containing internal standard (2 μM treprostinil-d4). Calibration standards for the treprostinil analysis were prepared for each test article in a surrogate matrix (supernatant from a mixture of 1:2 human plasma:acetonitrile), at concentrations ranging from 1 μM to 1 nM. Calibration standards were also diluted 1:1 with distilled water containing internal standard.

[15] = Measured solubility at pH 6.5; type: physicochemical
[16] = cAMP, cells overexpressing human IP

Molecule: treprostinil diacetate [Prodrug LXXII]
- Formation of Treprostinil, Concentration ([1]; 0 min): 0 µM
- Half-Life ([1]; 1 μM, 37° C.): >2 h
- Formation of Treprostinil, Concentration ([1]; 15 min): 0 µM
- Formation of Treprostinil, Concentration ([1]; 30 min): 0 µM
- Percent Remaining ([1]; 120 min, 1 μM, 37° C.): 86.5%
- Formation of Treprostinil, Concentration ([1]; 120 min): 0 µM
- Formation of Treprostinil, Concentration [1]: 0 µM
- Formation of Treprostinil, Concentration ([2]; 0 min): 0 µM
- Half-Life ([2]; 1 μM, 37° C.): >2 h
- Formation of Treprostinil, Concentration ([2]; 60 mm): 0.00595 µM
- Formation of Treprostinil, Concentration ([2]; 15 min): 0 µM
- Formation of Treprostinil, Concentration ([2]; 30 min): 0 µM
- Percent Remaining ([2]; 60 min, 1 μM, 37° C.): 83.6%
- Percent Remaining ([2]; 120 min, 1 μM, 37° C.): 79.7%
- Formation of Treprostinil, Concentration ([2]; 120 min): 0.0151 µM
- Formation of Treprostinil, Concentration ([3]; 0 min): 0 µM
- Half-Life ([3]; 1 μM, 37° C.): >2 h
- Percent Remaining ([3]; 15 min, 1 μM, 37° C.): 96.7%
- Formation of Treprostinil, Concentration ([3]; 15 min): 0 µM
- Formation of Treprostinil, Concentration ([3]; 30 min): 0 µM
- Percent Remaining ([3]; 120 min, 1 μM, 37° C.): 82.9%
- Formation of Treprostinil, Concentration ([3]; 120 min): 0 µM
- Formation of Treprostinil, Concentration [3]: 0 µM
- Treprostinil Concentration, 0 min [4]: 0.00458 µM
- Treprostinil Concentration, 15 min [4]: 0.562 µM
- Treprostinil Concentration, 30 min [4]: 0.491 µM
- Treprostinil Concentration, 60 min [4]: 0.433 µM
- Treprostinil Concentration, 120 min [4]: 0.364 µM
- Treprostinil Concentration, 0 min [5]: 0 µM
- Treprostinil Concentration, 15 min [5]: 0.24 µM
- Treprostinil Concentration, 30 min [5]: 0.301 µM
- Treprostinil Concentration, 60 min [5]: 0.298 µM
- Treprostinil Concentration, 120 min [5]: 0.274 µM
- Treprostinil Concentration, 0 min [6]: 0.0636 µM
- Treprostinil Concentration, 15 min [6]: 0.671 µM
- Treprostinil Concentration, 30 min [6]: 0.541 µM
- Treprostinil Concentration, 60 min [6]: 0.465 µM
- Treprostinil Concentration, 120 min [6]: 0.401 µM
- CLint ([6]; hepatocytes): >0.0308 mL/min/mg protein
- Half-Life ([6]; hepatocytes): <0.25 h
- Half-Life ([7]; SIF pH 6.8, 1 μM, 37° C.): >2 h
- Formation of Treprostinil, Concentration ([7]; 0 min): 0 µM
- Formation of Treprostinil, Concentration ([7]; 15 min): 0 µM
- Formation of Treprostinil, Concentration ([7]; 30 min): 0 µM
- Formation of Treprostinil, Concentration ([7]; 60 min): 0 µM
- Formation of Treprostinil, Concentration ([7]; 120 min): 0.0126 µM
- Activity at the IP receptor compared to treprostinil [8, 16]: inactive
- Activity at the EP2 receptor compared to treprostinil [9]: non-traditional dose response curve
- Activity at the DP1 receptor compared to treprostinil [10]: several hundred-fold less active
- Hydrolysis of prodrug to treprostinil, % Area, t = 1 week ([11]; pH 6, 40 C): 0.00 % Area
- Hydrolysis of prodrug to treprostinil, % Area, t = 2 weeks ([11]; pH 6, 40 C): 0.00 % Area
- Hydrolysis of prodrug to treprostinil, % Area, t = 3 weeks ([11]; pH 6, 40 C): 0.00 % Area
- Hydrolysis of prodrug to treprostinil, % Area, t = 1 week ([11]; pH 7, 40 C): 0.00 % Area
- Hydrolysis of prodrug to treprostinil, % Area, t = 2 weeks ([11]; pH 7, 40 C): 0.00 % Area
- Hydrolysis of prodrug to treprostinil, % Area, t = 3 weeks ([11]; pH 7, 40 C): 0.00 % Area
- Hydrolysis of prodrug to treprostinil, % Area, t = 1 week ([11]; pH 8, 40 C): 0.00 % Area
- Hydrolysis of prodrug to treprostinil, % Area, t = 2 weeks ([11]; pH 8, 40 C): 0.00 % Area
- Hydrolysis of prodrug to treprostinil, % Area, t = 3 weeks ([11]; pH 8, 40 C): 0.00 % Area
- Half-Life [12]: <0.167 h
- Half-Life [13]: <0.167 h

Molecule: treprostinil diphosphate [Prodrug LXXIII]
- Formation of Treprostinil, Concentration ([1]; 0 min): 0 µM
- Formation of Treprostinil, Concentration ([1]; 15 min): 0 µM
- Formation of Treprostinil, Concentration ([1]; 30 min): 0 µM
- Formation of Treprostinil, Concentration ([1]; 120 min): 0 µM
- Formation of Treprostinil, Concentration [1]: 0 µM
- Formation of Treprostinil, Concentration ([2]; 0 min): 0 µM
- Formation of Treprostinil, Concentration ([2]; 60 mm): 0 µM
- Formation of Treprostinil, Concentration ([2]; 15 min): 0 µM
- Formation of Treprostinil, Concentration ([2]; 30 min): 0 µM
- Formation of Treprostinil, Concentration ([2]; 120 min): 0 µM
- Formation of Treprostinil, Concentration ([3]; 0 min): 0 µM
- Formation of Treprostinil, Concentration ([3]; 15 min): 0 µM
- Formation of Treprostinil, Concentration ([3]; 30 min): 0 µM
- Formation of Treprostinil, Concentration ([3]; 120 min): 0 µM
- Formation of Treprostinil, Concentration [3]: 0 µM
- Treprostinil Concentration, 15 min [4]: 0.0163 µM
- Treprostinil Concentration, 15 min [5]: 0.0097 µM
- Treprostinil Concentration, 15 min [6]: 0.0506 µM
- Activity, IP Relative to Tre ([8]; Table 24, * partial agonists or ambiguous dose-response curves): 208x
- Activity, IP Relative to Tre ([8]; Table 25): 208x
- Fold less active than treprostinil at the IP receptor [8, 16]: approximately 200 fold
- Activity at the EP2 receptor compared to treprostinil [9]: inactive
- Activity, DP1 Relative to Tre ([10]; Table 24, image character = too high to realistically calculate): 217x
- Activity, DP1 Relative to Tre ([10]; Table 25): 217x
- Activity at the DP1 receptor compared to treprostinil [10]: several hundred-fold less active
- Hydrolysis of prodrug to treprostinil, % Area, t = 1 week ([11]; pH 6, 40 C): 0.00 % Area
- Hydrolysis of prodrug to treprostinil, % Area, t = 2 weeks ([11]; pH 6, 40 C): 0.00 % Area
- Hydrolysis of prodrug to treprostinil, % Area, t = 3 weeks ([11]; pH 6, 40 C): 0.00 % Area
- Hydrolysis of prodrug to treprostinil, % Area, t = 1 week ([11]; pH 7, 40 C): 0.00 % Area
- Hydrolysis of prodrug to treprostinil, % Area, t = 2 weeks ([11]; pH 7, 40 C): 0.00 % Area
- Hydrolysis of prodrug to treprostinil, % Area, t = 3 weeks ([11]; pH 7, 40 C): 0.00 % Area
- Hydrolysis of prodrug to treprostinil, % Area, t = 1 week ([11]; pH 8, 40 C): 0.00 % Area
- Hydrolysis of prodrug to treprostinil, % Area, t = 2 weeks ([11]; pH 8, 40 C): 0.00 % Area
- Hydrolysis of prodrug to treprostinil, % Area, t = 3 weeks ([11]; pH 8, 40 C): 0.00 % Area
- Percent Remaining (Avg, n = 3) ([14]; 0 min): 100%
- Percent Remaining (Avg, n = 3) ([14]; 30 min): 86.2%
- Percent Remaining (Avg, n = 3) ([14]; 60 min): 71.2%
- Percent Remaining (Avg, n = 3) ([14]; 120 min): 64.0%

Molecule: CCCCC[C@@H](CC[C@@H]1[C@H]2Cc3cccc(OCC(=O)O)c3C[C@H]2C[C@H]1O)OC(=O)OC(C)C [XVII]
- Measured Sol [15]: 10 mg/mL
